What was measured:
Assay in all cases: relative viability (nuclei count vs DMSO), 5 days (fraction); higher = more cells survive
TPCA-1 + OSI-027 = compound: C1=CC(=CC=C1C2=CC(=C(S2)NC(=O)N)C(=O)N)F [TPCA-1] + COc1cccc2cc(-c3nc([C@H]4CC[C@H](C(=O)O)CC4)n4ncnc(N)c34)[nH]c12 [OSI-027] (partner 0.5 µM)
Summary of the method: (§1)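 Lung cancer cell lines were pin-tool dosed in 1536-well plates on the day after seeding, with either a lone drug or a fixed anchor-drug dose plus five library-drug doses (not always all listed) in √10 steps. Nuclei were counted on 4× images after 5 days. Relative viability is the ratio of treated-well to vehicle-well nuclei counts, with each value a median of duplicate plates.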

[1] = compound: C[C@]12O[C@H](C[C@]1(O)CO)n1c3ccccc3c3c4c(c5c6ccccc6n2c5c31)CNC4=O [Lestaurtinib] + O=C(CCCCCCC(=O)Nc1ccccc1)NO [Vorinostat] (partner 1 µM)
Summary of the method: as §1

[2] = compound: C[C@]12O[C@H](C[C@]1(O)CO)n1c3ccccc3c3c4c(c5c6ccccc6n2c5c31)CNC4=O [Lestaurtinib] + CS(=O)(=O)N1CCN(Cc2cc3nc(-c4cccc5[nH]ncc45)nc(N4CCOCC4)c3s2)CC1 [Pictilisib] (partner 1 µM)
Summary of the method: as §1

[3] = compound: C1/C(=C\C2=CC=CS2)/C(=O)/C(=C/C3=CC=CS3)/C1 + Cc1cc(Nc2cc(N3CCN(C)CC3)nc(Sc3ccc(NC(=O)C4CC4)cc3)n2)n[nH]1 [Tozasertib] (partner 0.1 µM)
Summary of the method: as §1

Row | Cell Line | relative viability (TPCA-1 + OSI-027; first compound 0.04 µM) | relative viability (TPCA-1 + OSI-027; first compound 0.1265 µM) | relative viability (TPCA-1 + OSI-027; first compound 0.4 µM) | relative viability (TPCA-1 + OSI-027; first compound 1.265 µM) | relative viability (TPCA-1 + OSI-027; first compound 4 µM) | relative viability ([1]; first compound 0.005 µM) | relative viability ([1]; first compound 0.01581 µM) | relative viability ([1]; first compound 0.05 µM) | relative viability ([1]; first compound 0.1581 µM) | relative viability ([1]; first compound 0.5 µM) | relative viability ([2]; first compound 0.005 µM) | relative viability ([2]; first compound 0.01581 µM) | relative viability ([2]; first compound 0.05 µM) | relative viability ([2]; first compound 0.1581 µM) | relative viability ([2]; first compound 0.5 µM) | relative viability ([3]; first compound 0.2 µM) | relative viability ([3]; first compound 0.6325 µM) | relative viability ([3]; first compound 2 µM) | relative viability ([3]; first compound 6.325 µM) | relative viability ([3]; first compound 20 µM)
1 | HCC-78 | 0.411 | 0.357 | 0.385 | 0.335 | 0.337 | 0.442 | 0.407 | 0.386 | 0.311 | 0.243 | 0.19 | 0.225 | 0.203 | 0.136 | 0.169 | 0.423 | 0.593 | 0.45 | 0.37 | 0.454
2 | HCC-366 | 1.07 | 0.8 | 0.914 | 0.52 | 0.0324 | 0.351 | 0.469 | 0.335 | 0.317 | 0.19 | 0.159 | 0.178 | 0.192 | 0.101 | 0.0482 | 0.105 | 0.0974 | 0.101 | 0.0969 | 0.0897
3 | HCC-827 | 0.793 | 0.782 | 0.729 | 0.706 | 0.503 | 0.817 | 0.961 | 0.869 | 0.924 | 0.244 | 1.13 | 0.8 | 0.896 | 0.833 | 0.388 | 0.414 | 0.405 | 0.441 | 0.44 | 0.503
4 | HOP-62 | 0.872 | 0.748 | 0.96 | 0.574 | 0.716 | 0.632 | 0.767 | 0.494 | 0.426 | 0.295 | 0.742 | 0.693 | 0.642 | 0.604 | 0.427 | 0.368 | 0.39 | 0.348 | 0.302 | 0.39
5 | IA-LM |  |  |  |  |  | 1.2 | 1.05 | 1.02 | 1.33 | 0.625 | 0.547 | 0.691 | 0.725 | 0.642 | 0.198 |  |  |  |  | 
6 | LC-2-ad | 0.971 | 0.753 | 0.813 | 0.744 | 0.407 | 0.713 | 0.768 | 0.41 | 0.296 | 0.203 | 0.369 | 0.333 | 0.204 | 0.167 | 0.113 | 0.452 | 0.461 | 0.448 | 0.429 | 0.429
7 | LCLC-97TM1 | 0.584 | 0.323 | 0.486 | 0.411 | 0.283 |  | 0.744 | 0.389 | 0.187 | 0.155 | 0.197 | 0.163 | 0.138 | 0.139 | 0.125 | 0.239 | 0.233 | 0.227 | 0.213 | 0.195
8 | LCLC-103H | 0.458 | 0.44 | 0.485 | 0.443 | 0.387 | 0.783 | 0.83 | 0.646 | 0.5 | 0.395 | 0.61 | 0.623 | 0.521 | 0.443 | 0.481 | 0.485 | 0.47 | 0.517 | 0.465 | 0.451
9 | LK-2 | 0.222 | 0.174 | 0.232 | 0.205 | 0.198 | 0.237 | 0.353 | 0.198 | 0.193 | 0.154 | 0.57 | 0.648 | 0.481 | 0.433 | 0.28 | 0.157 | 0.155 | 0.196 | 0.168 | 0.175
10 | LOU-NH91 | 0.75 | 0.662 | 0.735 | 0.793 | 0.73 | 0.824 | 0.962 | 0.646 | 0.422 | 0.303 | 0.539 | 0.482 | 0.517 | 0.444 | 0.314 | 0.755 | 0.705 | 0.657 | 0.604 | 0.596
11 | LU99A | 0.325 | 0.297 | 0.322 | 0.232 | 0.258 | 0.437 | 0.484 | 0.416 | 0.213 | 0.169 | 0.298 | 0.312 | 0.253 | 0.205 | 0.179 | 0.287 | 0.284 | 0.266 | 0.267 | 0.301
12 | LXF-289 | 0.86 | 0.674 | 0.763 | 0.603 | 0.347 | 0.64 | 0.741 | 0.75 | 0.472 | 0.184 | 0.715 | 0.756 | 0.475 | 0.523 | 0.247 | 0.196 | 0.207 | 0.193 | 0.151 | 0.178
13 | NCI-H522 | 0.744 | 0.721 | 0.843 | 0.837 | 0.643 | 0.964 | 1.13 | 0.895 | 0.785 | 0.474 |  |  |  |  |  | 0.6 | 0.506 | 0.523 | 0.549 | 0.583
14 | NCI-H1299 |  |  |  |  |  |  |  |  |  |  | 0.558 | 0.502 | 0.222 | 0.305 | 0.133 |  |  |  |  | 
15 | NCI-H1563 | 0.784 | 0.766 | 0.827 | 0.712 | 0.688 |  |  |  |  |  | 0.635 | 0.709 | 0.618 | 0.638 | 0.536 |  |  |  |  | 
16 | NCI-H1623 | 0.497 | 0.509 | 0.484 | 0.514 | 0.389 |  |  |  |  |  |  |  |  |  |  | 0.479 | 0.437 | 0.423 | 0.394 | 0.489
17 | NCI-H1648 | 0.266 | 0.244 | 0.247 | 0.208 | 0.257 |  | 0.543 |  | 0.807 | 0.29 |  |  |  |  |  | 0.598 | 0.559 | 0.467 |  | 0.4
18 | NCI-H1703 |  |  |  |  |  |  |  |  |  |  | 0.254 | 0.217 | 0.201 | 0.173 | 0.132 |  |  |  |  | 
19 | NCI-H1792 | 0.701 | 0.653 | 0.696 | 0.618 | 0.564 |  |  |  |  |  | 0.316 | 0.302 | 0.243 | 0.141 | 0.129 |  |  |  |  | 
20 | NCI-H2342 | 0.566 | 0.537 | 0.536 | 0.555 | 0.514 | 0.776 | 0.767 | 0.752 | 0.915 | 0.743 |  |  |  |  |  | 0.521 | 0.567 | 0.561 | 0.443 | 0.459
21 | SW 900 | 0.705 | 0.576 | 0.768 | 0.463 | 0.475 | 0.376 | 0.69 | 0.59 | 0.632 | 0.65 |  |  |  |  |  | 0.514 | 0.567 | 0.558 | 0.618 | 0.584

— the supplement of paper PMC10307832
